Measurements as given in US8518885B2, “Heterocyclic peptide ketoamides” (Georgia Tech Research Corporation, priority 2008, dated 2013).

What was measured:
μI-II = μI-II (Rattus norvegicus, UniProt P97571); assay: Fluorimetric FRET-substrate assay of μI-II inhibition; assay type: biochemical; details: inhibitor 50 μM; 125 nM μI-II; 1.3 μM (EDANS)-EPLFAERK-(DABCYL); 4 mM CaCl2; FIG. 1B
Description: (§1) FIG. 1 is a pair of graphs showing the inhibitory effect of Z-Leu-Abu-CONH—(CH2)3-adenin-9-yl, and Z-Leu-Abu-CONH—(CH2)3-(4-methylpiperazin-1-yl) on m-calpain (FIG. 1A) and μI-II (FIG. 1B). Duplicate assays were performed by adding 1.3 μM (EDANS)-EPLFAERK(SEQ ID NO:1)-(DABCYL) (A), 125 nM calpain (B), and 4 mM CaCl2 (C), then averaged to yield the plots shown. Autolytic inactivation of m-calpain, but not μI-II, was observed when no inhibitor was added (X). Immediately following addition of each inhibitor (D), the increase in fluorescence intensity was attenuated.
(§2) Enzymatic activity was monitored in real-time using a 1.5 mL quartz cuvette and a Perkin-Elmer LS50-B Luminescence Spectrophotometer. Duplicate assays were performed with 1.3 μM (EDANS)-EPLFAERK(SEQ ID NO:1)-(DABCYL) and 125 nM μI-II or m-calpain in a buffer solution containing 50 mM HEPES-HCl (pH 7.7) and 10 mM DTT. The reaction was initiated 420 seconds after mixing by the addition of 4 mM CaCl2 and monitored at excitation and emission wavelengths of 335 nm and 500 nm, respectively. After a waiting period of 100 seconds, the inhibitor solution (either Z-Leu-Abu-CONH—(CH2)3-adenin-9-yl, or Z-Leu-Abu-CONH—(CH2)3-(4-methylpiperazin-1-yl) dissolved in DMSO) was added at a concentration of 1 μM (for the m-calpain assays) or 50 μM (for the μI-II assays). […]

m-calpain = target: T1, m-calpain (Rattus norvegicus, UniProt Q07009); assay: Fluorimetric FRET-substrate assay of m-calpain inhibition; assay type: biochemical; details: inhibitor 1 μM; 125 nM m-calpain; 1.3 μM (EDANS)-EPLFAERK-(DABCYL); 4 mM CaCl2; FIG. 1A
T1 sequence (Q07009 1-700): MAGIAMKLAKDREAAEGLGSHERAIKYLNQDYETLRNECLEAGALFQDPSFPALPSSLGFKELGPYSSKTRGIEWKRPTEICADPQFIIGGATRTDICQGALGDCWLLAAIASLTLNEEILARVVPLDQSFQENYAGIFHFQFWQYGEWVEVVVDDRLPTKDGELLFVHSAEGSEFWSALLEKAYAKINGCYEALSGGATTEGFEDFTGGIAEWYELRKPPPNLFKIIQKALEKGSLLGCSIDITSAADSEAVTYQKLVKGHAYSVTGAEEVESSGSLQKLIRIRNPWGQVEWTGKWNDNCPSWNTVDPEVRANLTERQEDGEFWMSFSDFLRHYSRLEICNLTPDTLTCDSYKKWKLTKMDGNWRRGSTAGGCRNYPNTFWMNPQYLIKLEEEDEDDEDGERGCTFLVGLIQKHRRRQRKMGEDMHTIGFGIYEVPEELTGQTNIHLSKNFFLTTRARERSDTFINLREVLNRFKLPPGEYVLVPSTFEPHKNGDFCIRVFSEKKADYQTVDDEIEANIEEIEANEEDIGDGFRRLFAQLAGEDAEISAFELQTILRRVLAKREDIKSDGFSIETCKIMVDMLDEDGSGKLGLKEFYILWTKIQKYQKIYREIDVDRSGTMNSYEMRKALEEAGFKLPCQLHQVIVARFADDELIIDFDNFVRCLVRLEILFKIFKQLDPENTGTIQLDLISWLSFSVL
T1 sequence (Q64537 87-270 partner limits assumed): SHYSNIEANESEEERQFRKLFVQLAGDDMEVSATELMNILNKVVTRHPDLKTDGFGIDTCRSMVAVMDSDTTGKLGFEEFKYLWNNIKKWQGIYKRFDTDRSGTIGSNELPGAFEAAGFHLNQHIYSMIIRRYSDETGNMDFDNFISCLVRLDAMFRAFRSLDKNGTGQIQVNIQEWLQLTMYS
Description: as §1, §2

calpain II = details: literature statement; cited from earlier work
calpain I = target: T2, calpain I (Homo sapiens, UniProt P07384); details: literature statement; cited from earlier work
T2 sequence (P07384 1-714): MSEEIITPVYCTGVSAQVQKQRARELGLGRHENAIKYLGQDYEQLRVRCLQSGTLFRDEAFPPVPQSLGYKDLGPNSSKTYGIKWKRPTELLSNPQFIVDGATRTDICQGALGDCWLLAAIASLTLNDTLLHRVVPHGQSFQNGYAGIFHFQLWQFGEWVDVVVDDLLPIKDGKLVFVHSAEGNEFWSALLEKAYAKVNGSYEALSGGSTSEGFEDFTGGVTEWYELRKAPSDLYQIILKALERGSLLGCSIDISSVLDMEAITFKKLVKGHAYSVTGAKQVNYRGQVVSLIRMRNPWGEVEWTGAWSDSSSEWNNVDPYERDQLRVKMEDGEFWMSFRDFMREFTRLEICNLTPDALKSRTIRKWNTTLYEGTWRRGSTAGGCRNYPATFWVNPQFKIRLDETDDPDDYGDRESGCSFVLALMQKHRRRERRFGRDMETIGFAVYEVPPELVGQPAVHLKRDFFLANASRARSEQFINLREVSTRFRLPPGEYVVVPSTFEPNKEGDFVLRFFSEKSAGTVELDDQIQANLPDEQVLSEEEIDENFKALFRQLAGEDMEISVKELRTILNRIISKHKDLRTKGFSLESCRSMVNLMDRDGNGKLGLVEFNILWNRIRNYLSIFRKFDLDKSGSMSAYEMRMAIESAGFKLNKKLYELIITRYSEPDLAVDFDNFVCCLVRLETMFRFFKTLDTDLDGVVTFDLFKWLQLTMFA
T2 sequence (P04632 1-268 partner): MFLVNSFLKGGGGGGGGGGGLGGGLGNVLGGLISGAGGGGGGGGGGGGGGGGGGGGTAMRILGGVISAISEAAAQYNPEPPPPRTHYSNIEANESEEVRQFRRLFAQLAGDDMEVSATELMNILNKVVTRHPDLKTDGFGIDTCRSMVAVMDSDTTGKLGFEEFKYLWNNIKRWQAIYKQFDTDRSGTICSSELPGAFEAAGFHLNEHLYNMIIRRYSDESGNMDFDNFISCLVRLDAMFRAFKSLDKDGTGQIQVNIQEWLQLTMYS

[1] = tested on: other cysteine proteases such as cathepsins; details: literature statement; cited from earlier work

Chain of μI-II (P97571 55-354 limits assumed): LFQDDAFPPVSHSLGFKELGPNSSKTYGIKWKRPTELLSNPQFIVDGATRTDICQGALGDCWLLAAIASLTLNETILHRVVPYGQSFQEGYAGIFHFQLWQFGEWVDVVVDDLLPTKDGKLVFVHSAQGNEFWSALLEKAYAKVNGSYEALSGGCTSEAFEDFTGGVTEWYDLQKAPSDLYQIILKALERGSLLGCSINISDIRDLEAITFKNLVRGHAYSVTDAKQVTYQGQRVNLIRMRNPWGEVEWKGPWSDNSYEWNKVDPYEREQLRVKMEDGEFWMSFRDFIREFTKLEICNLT

Row | SMILES | attenuation of the increase in fluorescence intensity (cleavage of FRET substrate) by μI-II (μI-II) | attenuation of the increase in fluorescence intensity (cleavage of FRET substrate) by m-calpain (m-calpain) | inhibition of calpain II (calpain II) | inhibition of calpain I (calpain I) | inhibitory activity toward other cysteine proteases such as cathepsins [1]
1 | CCC(NC(=O)[C@H](CC(C)C)NC(=O)OCc1ccccc1)C(=O)C(=O)NCCCn1cnc2c(N)ncnc21 (stereo partly drawn) [Z-Leu-Abu-CONH—(CH2)3-adenin-9-yl, 3-(Benzyloxycarbonyl-L-leucylamino)-N-(3-(6-amino-9H-purin-9-yl)propyl)-2-oxopentanamide] | more distinct attenuation of fluorescence | more distinct attenuation of fluorescence | – | – | –
2 | CCC(NC(=O)[C@H](CC(C)C)NC(=O)OCc1ccccc1)C(=O)C(=O)NCCCN1CCN(C)CC1 (stereo partly drawn) [3-(Benzyloxycarbonyl-L-leucylamino)-N-(3-(4-methylpiperazin-1-yl)propyl)-2-oxopentanamide] | immediately attenuated | immediately attenuated | – | – | –
3 | CCC(NC(=O)[C@H](CC(C)C)NC(=O)OCc1ccccc1)C(=O)C(=O)NCCCN1CCOCC1 (stereo partly drawn) [AK295, Z-Leu-Abu-CONH—(CH2)3-4-morpholinyl] | – | – | potent transition-state inhibitor | potent transition-state inhibitor | some inhibitory activity
